The text below walks through data of ChEMBL document CHEMBL1130544, “Catalysis of the Kemp elimination by antibodies elicited against a cationic hapten” (Bioorg Med Chem Lett, 1997).

Assay type in all cases: ADME
The nature of series [1]: Rate constant at 30 degree C in phosphate buffer pH 7.1, 0.5 % acetonitrile was expressed as Kcat/KM.
A short description of series [2]: Rate constant ratio at 30 degree C in phosphate buffer pH 7.1, 0.5 % acetonitrile.
Series [3] is described as follows: Rate constant with triethylamine at 30 degree C in 0.1 M potassium chloride was expressed as Kamine.
Series [4] is described as follows: Kinetic parameter for antibody-catalyzed Kemp elimination, at pH 7.1, 30C, using 5% acetonitrile and 4B2 as catalyst was expressed as KM.
Series [5] can be described thus: Kinetic parameter for antibody-catalyzed Kemp elimination, at pH 7.1, 30C, using 10% acetonitrile and 4B2 as catalyst was expressed as Kcat/KM.
Series [6] can be described thus: Kinetic parameter for antibody-catalyzed Kemp elimination, at pH 7.1, 30C, using 5% acetonitrile and 4B2 as catalyst was expressed as Kcat/KM.
Series [7] can be described thus: Kinetic parameter for antibody-catalyzed Kemp elimination, at pH 7.1, 30C, using 1% acetonitrile and 4B2 as catalyst was expressed as Kcat/Kuncat.
Series [8] is described as follows: Kinetic parameter for antibody-catalyzed Kemp elimination, at pH 7.1, 30C, using 5% acetonitrile and 4B2 as catalyst was expressed as Kcat/Kuncat.
Series [9] can be described thus: Kinetic parameter for antibody-catalyzed Kemp elimination, at pH 7.1, 30C, using 1% acetonitrile and 4B2 as catalyst was expressed as Kcat.
Series [10] can be described thus: Kinetic parameter for antibody-catalyzed Kemp elimination, at pH 7.1, 30C, using 5% acetonitrile and 4B2 as catalyst was expressed as Kcat.
Series [11] can be described thus: Kinetic parameter for antibody-catalyzed Kemp elimination, at pH 7.1, 30C, using 0.25% acetonitrile and 4B2 as catalyst was expressed as Kcat/KM.
A short description of series [12]: Kinetic parameter for antibody-catalyzed Kemp elimination, at pH 7.1, 30C, using 1% acetonitrile and 4B2 as catalyst was expressed as Kcat/KM.
Series [13] in a line: Kinetic parameter for antibody-catalyzed Kemp elimination, at pH 7.1, 30C, using 1% acetonitrile and 6C2 as catalyst was expressed as Kcat/KM.
Series [14] in a line: Kinetic parameter for antibody-catalyzed Kemp elimination, at pH 7.1, 30C, using 1% acetonitrile and 4B2 as catalyst was expressed as KM.

As for `O=[N+]([O-])c1ccc2cnoc2c1`, the “k cat/Km” value in series [1] turned out to be 6 M⁻¹ s⁻¹. The Ratio in series [2] stood at 38. Besides, the K amine in series [3] was found to be 0.16 M⁻¹ s⁻¹.

In the case of `c1ccc2oncc2c1` [BENZO[D]ISOXAZOLE], the “k cat/Km” value in series [1] was found to be 0.6 M⁻¹ s⁻¹. The Ratio in [2] is 32. In series [3], this compound displayed a K amine of 0.0185 M⁻¹ s⁻¹.

As for `O=[N+]([O-])c1ccc2oncc2c1`, the Km in [4] was 2100 µM; in [14], 1200 µM. The “k cat/Km” value is 5.9 M⁻¹ s⁻¹ in [5]; 10.1 M⁻¹ s⁻¹ in [6]; 39 M⁻¹ s⁻¹ in series [1]; 53 M⁻¹ s⁻¹ in [11]; 29.1 M⁻¹ s⁻¹ in series [12]; 1.4 M⁻¹ s⁻¹ in series [13]. Besides, the k cat/Kuncat was 18000 in series [7] and 6300 in series [8]. In addition, the k cat was 0.035 s⁻¹ in [9] and 0.022 s⁻¹ in [10]. The Ratio in series [2] is recorded as 48. The compound also returned a K amine in series [3] of 0.82 M⁻¹ s⁻¹.
